ChEMBL document CHEMBL3507680, “University of Dundee, Gates Library screen for HepG2 cell viability”

Experiment: Human HepG2 cell viability assay in 384 well format
Type: toxicity, cell-based
Set-up: dose 125 nL, time 70.5 hour; cytotoxicity at 70.5 h: concentration not given beside the values
Conditions: HepG2 cells, read-out: Inhibition

Row | Structure (SMILES) | cytotoxicity at 70.5 h [%]
1 | Cc1ccc(N2CCCc3sc(C(=O)NCCC#N)nc32)nn1 | -4.91
2 | COC(=O)C(NC(=O)c1ccc(N(C)C)nc1)c1ccccc1 (stereo unspecified) | -8.4
3 | Cc1ccc(C(=O)N[C@H]2CN(CCO)C[C@@H]2C2CC2)cc1Cl | 1.11
4 | CCS(=O)(=O)N1CC[C@@H]2[C@H](CC1)N(CC(C)C)CCS2(=O)=O | -1.74
5 | Cc1ccc(S(=O)(=O)NC[C@H]2OC[C@@H](NCc3cccnc3)[C@@H]2O)cc1 | -7.82
6 | O=C(NCC1CC1)C1CCC2(CCN(C(=O)c3cccs3)CC2)O1 (stereo unspecified) | -15.2
7 | CN(Cc1ccc(F)cc1)CC1(O)CCCN(CC(C)(C)C)C1=O (stereo unspecified) | -6.42
8 | O=C(Nc1cccc(CNCc2ccsc2)c1)C1CC1 | 7.14
9 | O=C1N(Cc2ccccc2)C[C@H]2CN(Cc3ccccc3Cl)CCN12 | -1.14
10 | CS(=O)(=O)NCCC(=O)N1CCCC1c1noc(C2CC2)n1 (stereo unspecified) | -11.1
11 | Cc1cc2cc(CNC(=O)c3cnn4c3OCCC4)ccc2[nH]1 | -1.4
12 | CN1CC(=O)N(c2cccc(F)c2)CC12CCN(Cc1ccsc1)C2 (stereo unspecified) | -5.22
13 | CC(C)C(=O)N1CCCC1C(=O)Nc1ccc(F)c(F)c1 (stereo unspecified) | -14.3
14 | O=S(=O)(c1ccc(-c2cnco2)cc1)N1CCCC2(CCNCC2)CC1 | 0.207
15 | Cc1cc(C)n(CC2CCCN2C(=O)Cc2cn3ccsc3n2)n1 (stereo unspecified) | -12.4
16 | Cc1nc(CN(C)C2CCN(Cc3cnc(C)s3)C2)no1 (stereo unspecified) | -3.46
17 | Cc1noc(C)c1-c1cncc(C2CCCN2Cc2c[nH]cn2)n1 (stereo unspecified) | -6.81
18 | Cc1nc2c(c(C)c1CC(=O)Nc1ccc(Cl)cc1)c(=O)[nH]n2C | -3.48
19 | CC(C)n1cnnc1C1CCCN(S(=O)(=O)CCCF)C1 (stereo unspecified) | -93.6
20 | O=C(NCCOc1ncc(Cl)cc1Cl)c1cccnc1 | 8.03
21 | Cc1c(C(=O)N(C)CC(F)(F)F)nnn1-c1ccc(F)cc1 | 0.0353
22 | COc1cc(Cl)c(NCc2c(C)noc2C)cc1OC | -7.06
23 | Cc1ccc(C(=O)N2CCN(Cc3ccc(C#N)cc3)CC2)n1C | -2.38

Row | Structure (SMILES) | cytotoxicity at 70.5 h [%]
24 | Cn1cc(CN2CC[C@H]3[C@H]2CC(=O)N3Cc2ccncc2)cn1 | -15.4
25 | Cc1cn([C@H]2CCNC[C@]2(C)O)c(=O)[nH]c1=O | 4.8
26 | CC(C)Nc1nc2c(c(NC3CC3)n1)CCN(C1CCOCC1)CC2 | -3.76
27 | Cn1cc(C2CCCN2C(=O)CCCc2ccccn2)cn1 (stereo unspecified) | -7.85
28 | Cc1ccc(C(=O)NCc2ccc(N3CCCC(C(N)=O)C3)cc2)o1 (stereo unspecified) | -14.6
29 | COc1ccc(CN2CCC3(CC(C(=O)NCC(C)C)=NO3)C2)cc1 (stereo unspecified) | -6.44
30 | Cc1ccc(N2CCCC(N(C)Cc3ccccn3)C2)nn1 (stereo unspecified) | -10.3
31 | CCCS(=O)(=O)N1CCN(C(=O)CO)CC1 | -6.95
32 | COc1cccc(OC2CN(C(=O)C3CCCN(C(=O)N(C)C)C3)C2)c1 (stereo unspecified) | 26.8
33 | O=C(c1c[nH]c(=O)[nH]1)N1CCCC2(CCC(=O)N(C3CCCC3)C2)C1 (stereo unspecified) | 1.3
34 | CC(C)(O)CN1CCN(C(=O)c2cccn2Cc2ccncc2)CC1 | -9.5
35 | O=C(c1ccco1)N1CC[C@H]2C[C@@H](c3nccs3)O[C@@H]2C1 | -1.13
36 | Cc1ccc(CN2C[C@H](OCCN(C)C)[C@H]3COC[C@H]32)o1 | -0.961
37 | CNc1nc(C(=O)N2CCCCC2c2ccc(CN(C)C)cc2)cs1 (stereo unspecified) | 1.16
38 | CCN1CCN(C(=O)c2ccc3c(c2)CCCN3)[C@H]2CS(=O)(=O)C[C@H]21 | -5.32
39 | CCc1cc(NCc2ccc(-n3cncn3)c(C)c2)n(C)n1 | 2.61
40 | CN(Cc1cccs1)C1CCC[C@@H]2CN(C(=O)c3cnccn3)C[C@H]12 (stereo partly specified) | -7.78
41 | Clc1ccc2cccnc2c1CN1CCn2c(nnc2C2CC2)C1 | -13.3
42 | Cc1cnc(C(=O)N2C[C@@H]3[C@@H](C2)OCC(=O)N3CC2CCCC2)cn1 | 15.5
43 | CC(C)CCN1C[C@H]2C[C@H](C(=O)NCc3ccccc3)[C@@H](C1)O2 | 5.49
44 | Cc1c[nH]c(C2CCCN(Cc3cccc(C(=O)O)c3)C2)n1 (stereo unspecified) | -4.03
45 | CCOc1ccc(Cl)cc1C(C(=O)O)N1CCCC1 (stereo unspecified) | -2.88
46 | CCN1CCC(CC(=O)N2CCCCC2CCn2cccn2)CC1 (stereo unspecified) | -11.1

Row | Structure (SMILES) | cytotoxicity at 70.5 h [%]
47 | Cc1cc(C)c(S(=O)(=O)Nc2ccccc2CC(F)(F)F)cc1C(=O)O | -8.62
48 | COc1c(C)cnc(CNC(=O)CCOCc2ccccc2)c1C | -3.15
49 | COCCNc1c(C#N)c2c(c3nncn13)CN(C)CC2 | -5.01
50 | Cc1cc(C)n(C2CCCN(C(=O)c3cccc4c3OCO4)C2)n1 (stereo unspecified) | -10.8
51 | Cc1ccnn1CC(=O)N(C)Cc1ccc(-n2cccn2)cc1 | -7.33
52 | Cc1ccc(OCC(=O)NCC(C)C)nc1 | -3.31
53 | CCN(CC)CCNc1ncc(-c2cc(C)no2)c(-c2ccoc2C)n1 | -10.5
54 | Cn1cc(C2COC3(CCN(C(=O)c4ccc(F)cc4)CC3)C2)cn1 (stereo unspecified) | -2.41
55 | CCC1CN(CC(=O)NCc2ccco2)CCO1 (stereo unspecified) | 2.02
56 | CC1=N[C@@]2(CC[C@@H]3CN(Cc4ccccc4)C[C@@H]32)C(=O)N1CC1CC1 | -21.6
57 | COc1ccc(N(Cc2ccco2)C(=O)C2CCOC2)cc1F (stereo unspecified) | -6.7
58 | O=C(c1cnccn1)N1C[C@@H]2CC[C@H](C1)N(S(=O)(=O)c1cccnc1)C2 | 7.54
59 | CS(=O)(=O)N1CCC(c2cncc(Cl)n2)CC1 | 27.2
60 | CC(=O)N1C[C@@H]2CC[C@H](C1)N(S(=O)(=O)c1ccc(C#N)cc1Cl)C2 | -12.7
61 | CN(Cc1ccsc1)C(=O)Nc1ccc(S(=O)(=O)N(C)C)cc1 | 3.55
62 | CCc1ccccc1NC(=O)NCc1nnc(SC)n1C | -5.85
63 | Cc1nnnn1-c1cc(NCc2cccc(C#N)c2)ccc1F | -24.4
64 | CC(=O)NCC1CCN(c2cc(C)nc(-c3ccncc3)n2)CC1 | -10.9
65 | Cc1nn(C)c(Cl)c1C1CCCN1C(=O)c1ccc2nncn2c1 (stereo unspecified) | 5.97
66 | CC(CN1CCOC1=O)NC(=O)c1cccc(Cl)c1Cl (stereo unspecified) | -4.07
67 | Nc1nccc(N2C[C@@H](CN3CCCCC3)[C@@H](CO)C2)n1 | -6.83
68 | CC(C)n1cc2cc(NC(=O)CCS(C)(=O)=O)ccc2n1 | 23.6
69 | CCn1cc(C(=O)N2C[C@H]3C[C@H](Oc4ccccc4)C[C@H]3C2)cn1 | -0.374

Row | Structure (SMILES) | cytotoxicity at 70.5 h [%]
70 | CC(C)(N)C(=O)N1CCC(c2nccnc2Oc2cccc(F)c2)CC1 | -10.4
71 | Cc1cn(CC(=O)NCC(=O)NC2CC2)c2ccccc12 | -0.742
72 | CN(C)C(=O)CNC(=O)c1nc(C2CC2)n(-c2ccccc2Cl)n1 | -13.7
73 | COc1ccc(CNC(=O)NCC(O)(c2cccs2)C2CC2)cc1 (stereo unspecified) | -6.74
74 | CN(C)c1nccc(N2CCO[C@H]3CN(Cc4ccsc4)C[C@H]32)n1 | -6
75 | Fc1ccccc1OCCc1cc(C2CNCCO2)n[nH]1 (stereo unspecified) | -5.54
76 | Cc1ncsc1C(=O)N1CC[C@@H]2[C@@H](CC1)OCCN2c1cccnc1 | -8.57
77 | O=C(NCCCn1ccnc1)N1CCCC1c1cccs1 (stereo unspecified) | -2.86
78 | CCn1ccnc1CN1CCN(CC(O)c2ccco2)CC1 (stereo unspecified) | -5.46
79 | F[C@@H]1CN(Cc2cccnc2)C[C@@H]1OCc1nc2ccccc2[nH]1 | -3.79
80 | O=C(NCCc1c[nH]cn1)C1CCCN(C2CCOCC2)C1 (stereo unspecified) | -5.69
81 | Cc1noc(C(C)N2CCN(CCOCC(F)(F)F)CC2)n1 (stereo unspecified) | 27.9
82 | CCOC(=O)NC(CNC(=O)c1cccnc1SC)CC(C)C (stereo unspecified) | 8.28
83 | Cc1nnc(CN(Cc2cccc(Cl)c2)C(C)C)o1 | -16.1
84 | CCOC(=O)N1CCN(CC(=O)Nc2ccc(F)cc2Cl)CC1 | -8.51
85 | CNC(=O)CN1CCC(NC(=O)Cn2cc(C)c3ccccc32)CC1 | 0.492
86 | CCNC(=O)N(Cc1cccc(OC)c1)C1CCC(O)CC1 (stereo unspecified) | 2.57
87 | COc1ccccc1NCC(=O)NCc1cc[nH]n1 | 26.9
88 | CCOCCC(=O)N1CCN(CC(C)O)CC1 (stereo unspecified) | 16
89 | COc1ccccc1CCN1CCCC(CN(C)Cc2cc(C)n[nH]2)C1 (stereo unspecified) | -8.68
90 | CC(C)Oc1ccccc1C1CC(=O)Nc2c1cnn2C (stereo unspecified) | -11.9
91 | Cc1ncsc1CCC(=O)N1CCCC[C@H](N(C)C)C1 | 16.9
92 | Cc1nc(CN(C)C2CCN(Cc3ccno3)C2)no1 (stereo unspecified) | 29.4

Row | Structure (SMILES) | cytotoxicity at 70.5 h [%]
93 | CN1CCN(c2ccnc3c(F)cc(Br)cc23)CC1 | 1.8
94 | CC(C(=O)N1CCOCC1)n1cc(Br)cn1 (stereo unspecified) | 12.3
95 | Cc1noc(C)c1CNCC1CCN(CC(O)c2ccccc2)CC1 (stereo unspecified) | 2.35
96 | CC(C)CCn1nc(CNc2ccc(Br)cc2)nc1O | -17.8
97 | CC(NCc1ccc(OCc2nccn2C)cc1)c1cccnc1 (stereo unspecified) | -9.04
98 | CNC(=O)[C@H]1C[C@@H]2CN(S(=O)(=O)Cc3ccccc3)C[C@@H]2N1C | -3.87
99 | CCN1CCC(CNCc2cc(C)ccc2OC)C1 (stereo unspecified) | -8.51
100 | CCNC(=O)[C@@H]1C[C@@H](NC(=O)Cc2ccncc2)CN1Cc1ccsc1 | -1.57
101 | Cc1nc(C(=O)N2CCCC2c2cncc(CN3CCCC3)n2)co1 (stereo unspecified) | -1.27
102 | Cc1ncsc1CN(C)C(=O)CC1CCOc2ccccc21 (stereo unspecified) | 22.4
103 | CCn1ncnc1C(C)NC(=O)C1CCN(C(=O)COC)CC1 (stereo unspecified) | -8.09
104 | COCC1c2nnn(CC3CC3)c2CCN1C(=O)c1ccnnc1 (stereo unspecified) | -6.63
105 | Cc1ccccc1C(=O)NCc1ccc(N2CCNC(=O)C2)c(F)c1 | -8
106 | COCC1CCCN(C(=O)c2ccc(N(C)Cc3cnn(C)c3)nc2)C1 (stereo unspecified) | 26
107 | Cc1nccc(-c2cccc(NCC(=O)NCC(=O)N3CCCC3)c2)n1 | -3.17
108 | O=C(c1ccsc1)N1CCc2c(CNc3nccs3)n[nH]c2C1 | -2.81
109 | Cc1ncsc1C(=O)N(C)CCc1ccncc1 | -2.51
110 | COc1cc(-c2nc(N)n[nH]2)cc(OC)c1OC | -8.57
111 | O=C1N(Cc2cccc(F)c2F)CCCC1(O)CNCc1ccccc1 (stereo unspecified) | 19.6
